Activity calls are given as the source filed them. Rule as the data show it, for most assays here: actives have a measured Kd and inactives only a lower limit.
Legend:
[1] = target: T1, NUAK family SNF1-like kinase 2 (Homo sapiens, UniProt Q9H093)
T1 sequence (Q9H093 whole entry): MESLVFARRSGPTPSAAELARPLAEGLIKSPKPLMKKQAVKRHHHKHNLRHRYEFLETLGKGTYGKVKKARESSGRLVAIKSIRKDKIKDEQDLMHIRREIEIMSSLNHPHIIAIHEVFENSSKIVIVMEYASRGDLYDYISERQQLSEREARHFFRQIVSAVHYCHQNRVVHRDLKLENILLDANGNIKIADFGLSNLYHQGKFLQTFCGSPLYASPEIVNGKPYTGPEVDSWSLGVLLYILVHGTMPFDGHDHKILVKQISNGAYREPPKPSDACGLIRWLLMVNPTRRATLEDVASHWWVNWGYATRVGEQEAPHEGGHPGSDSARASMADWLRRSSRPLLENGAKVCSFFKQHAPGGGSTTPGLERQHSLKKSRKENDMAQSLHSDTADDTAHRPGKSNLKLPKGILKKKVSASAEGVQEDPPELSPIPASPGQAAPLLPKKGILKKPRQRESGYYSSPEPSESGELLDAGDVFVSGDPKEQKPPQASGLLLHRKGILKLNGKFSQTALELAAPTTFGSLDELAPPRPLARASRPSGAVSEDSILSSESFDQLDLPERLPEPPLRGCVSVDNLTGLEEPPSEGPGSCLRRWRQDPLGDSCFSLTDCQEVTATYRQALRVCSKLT

Septin-9 = target: T2, Septin-9 (Homo sapiens, UniProt Q9UHD8)
T2 sequence (Q9UHD8 whole entry): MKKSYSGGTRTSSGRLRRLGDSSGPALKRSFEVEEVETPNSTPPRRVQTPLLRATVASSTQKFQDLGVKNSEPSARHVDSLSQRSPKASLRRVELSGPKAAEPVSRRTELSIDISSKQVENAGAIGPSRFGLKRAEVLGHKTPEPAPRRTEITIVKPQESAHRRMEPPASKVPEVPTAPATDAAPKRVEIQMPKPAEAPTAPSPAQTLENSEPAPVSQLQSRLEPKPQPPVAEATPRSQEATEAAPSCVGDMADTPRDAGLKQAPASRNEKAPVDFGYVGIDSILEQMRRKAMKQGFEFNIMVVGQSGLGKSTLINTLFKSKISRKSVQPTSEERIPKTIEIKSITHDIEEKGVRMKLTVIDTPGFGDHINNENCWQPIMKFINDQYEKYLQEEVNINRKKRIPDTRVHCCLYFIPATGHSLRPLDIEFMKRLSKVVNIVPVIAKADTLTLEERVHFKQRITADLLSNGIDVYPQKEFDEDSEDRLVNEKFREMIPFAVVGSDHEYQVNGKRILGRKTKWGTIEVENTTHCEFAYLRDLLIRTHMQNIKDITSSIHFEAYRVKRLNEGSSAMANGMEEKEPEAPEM

[2] = target: Tyrosine-protein kinase CSK (Homo sapiens, UniProt P41240)
Chain of Tyrosine-protein kinase CSK (P41240 whole entry): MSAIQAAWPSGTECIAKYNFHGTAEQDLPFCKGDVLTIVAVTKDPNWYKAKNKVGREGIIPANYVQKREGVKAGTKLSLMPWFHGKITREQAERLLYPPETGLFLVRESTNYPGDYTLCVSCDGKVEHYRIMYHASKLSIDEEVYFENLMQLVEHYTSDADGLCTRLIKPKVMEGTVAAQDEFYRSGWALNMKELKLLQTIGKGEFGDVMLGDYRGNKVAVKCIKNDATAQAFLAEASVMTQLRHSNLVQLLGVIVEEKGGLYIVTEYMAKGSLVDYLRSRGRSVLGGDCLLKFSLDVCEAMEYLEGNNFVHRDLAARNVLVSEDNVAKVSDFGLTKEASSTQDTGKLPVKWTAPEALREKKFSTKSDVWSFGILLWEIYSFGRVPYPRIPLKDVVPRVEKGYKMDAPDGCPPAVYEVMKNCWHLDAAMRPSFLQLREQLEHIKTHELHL

[3] = target: Cyclin-dependent kinase 3 (Homo sapiens, UniProt Q00526)
Chain of Cyclin-dependent kinase 3 (Q00526 whole entry): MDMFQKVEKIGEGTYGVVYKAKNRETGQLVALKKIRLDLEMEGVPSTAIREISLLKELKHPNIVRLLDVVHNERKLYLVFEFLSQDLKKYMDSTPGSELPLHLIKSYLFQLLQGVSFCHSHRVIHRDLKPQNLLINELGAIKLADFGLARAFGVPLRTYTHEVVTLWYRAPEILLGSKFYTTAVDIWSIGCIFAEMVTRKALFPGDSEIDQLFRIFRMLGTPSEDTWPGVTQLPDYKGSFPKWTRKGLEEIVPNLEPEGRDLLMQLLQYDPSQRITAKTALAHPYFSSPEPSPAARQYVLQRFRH

[4] = target: T3, Serine/threonine-protein kinase TAO3 (Homo sapiens, UniProt Q9H2K8)
T3 sequence (Q9H2K8 whole entry): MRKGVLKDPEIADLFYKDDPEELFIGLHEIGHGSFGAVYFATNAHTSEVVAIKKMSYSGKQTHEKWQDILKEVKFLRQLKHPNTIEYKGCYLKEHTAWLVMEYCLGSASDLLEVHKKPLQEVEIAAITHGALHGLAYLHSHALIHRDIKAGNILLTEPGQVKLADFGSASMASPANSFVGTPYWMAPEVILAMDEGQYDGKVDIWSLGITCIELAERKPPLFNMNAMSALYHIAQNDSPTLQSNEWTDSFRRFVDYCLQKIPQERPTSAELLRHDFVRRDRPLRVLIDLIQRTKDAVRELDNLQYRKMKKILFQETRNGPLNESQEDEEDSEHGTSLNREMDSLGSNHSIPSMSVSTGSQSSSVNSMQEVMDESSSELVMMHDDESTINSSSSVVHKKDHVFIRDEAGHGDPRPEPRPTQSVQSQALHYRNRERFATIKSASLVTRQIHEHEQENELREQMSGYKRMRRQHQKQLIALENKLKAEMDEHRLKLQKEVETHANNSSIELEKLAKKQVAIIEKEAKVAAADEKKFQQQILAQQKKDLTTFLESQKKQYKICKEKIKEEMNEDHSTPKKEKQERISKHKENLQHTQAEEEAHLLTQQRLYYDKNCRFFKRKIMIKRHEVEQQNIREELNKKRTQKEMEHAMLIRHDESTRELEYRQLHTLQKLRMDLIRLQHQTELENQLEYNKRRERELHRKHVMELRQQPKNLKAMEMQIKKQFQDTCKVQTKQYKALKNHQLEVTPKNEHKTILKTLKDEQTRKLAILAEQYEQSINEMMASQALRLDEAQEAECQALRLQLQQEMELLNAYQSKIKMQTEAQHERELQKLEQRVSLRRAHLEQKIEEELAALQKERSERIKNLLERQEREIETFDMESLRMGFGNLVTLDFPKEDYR

[5] = target: Calcium/calmodulin-dependent protein kinase kinase 2 (Homo sapiens, UniProt Q96RR4)
Chain of Calcium/calmodulin-dependent protein kinase kinase 2 (Q96RR4 whole entry): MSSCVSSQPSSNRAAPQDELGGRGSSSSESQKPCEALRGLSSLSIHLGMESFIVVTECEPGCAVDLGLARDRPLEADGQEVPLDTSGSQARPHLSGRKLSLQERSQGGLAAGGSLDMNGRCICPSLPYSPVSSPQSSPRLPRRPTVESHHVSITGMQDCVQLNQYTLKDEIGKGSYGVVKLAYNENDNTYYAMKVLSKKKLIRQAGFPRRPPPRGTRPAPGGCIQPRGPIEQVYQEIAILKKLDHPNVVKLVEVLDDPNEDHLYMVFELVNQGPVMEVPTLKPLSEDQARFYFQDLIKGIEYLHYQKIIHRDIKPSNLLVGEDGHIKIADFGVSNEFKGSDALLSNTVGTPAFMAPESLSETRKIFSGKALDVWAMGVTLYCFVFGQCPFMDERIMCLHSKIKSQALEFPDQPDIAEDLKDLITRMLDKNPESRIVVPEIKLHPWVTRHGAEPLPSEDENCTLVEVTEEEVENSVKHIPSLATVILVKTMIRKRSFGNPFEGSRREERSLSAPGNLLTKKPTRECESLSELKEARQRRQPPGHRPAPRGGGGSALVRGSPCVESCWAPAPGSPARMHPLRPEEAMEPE
Also: in the data inactive means no Kd found up to 30 µM.

Compound | Kd [1] | Kd (Septin-9) | Kd [2] | Kd [3] | Kd [4] | Kd [5]
NC[C@@](O)(c1ccc(Cl)cc1)c1ccc(-c2cn[nH]c2)cc1 [AT-13148] | > 30 µM (inactive) | > 30 µM (inactive) | > 30 µM (inactive) | > 30 µM (inactive) | > 30 µM (inactive) | > 30 µM (inactive)
C=CCN(/C=C1/C(=O)O[C@H](COC)[C@@]2(C)C1=C(O)C(=O)C1=C2[C@H](OC(C)=O)C[C@]2(C)C(=O)CC[C@@H]12)CC=C [SONOLISIB] | > 30 µM (inactive) | > 30 µM (inactive) | > 30 µM (inactive) | > 30 µM (inactive) | > 30 µM (inactive) | > 30 µM (inactive)
COc1cc2nccc(Oc3ccc(NC(=O)C4(C(=O)Nc5ccc(F)cc5)CC4)cc3)c2cc1OC [CABOZANTINIB] | > 30 µM (inactive) | > 30 µM (inactive) | > 30 µM (inactive) | > 30 µM (inactive) | > 30 µM (inactive) | > 30 µM (inactive)
C[C@@H]1COC(Nc2ccc3ncnc(Nc4ccc(OCc5nccs5)c(Cl)c4)c3c2)=N1 [VARLITINIB] | > 30 µM (inactive) | > 30 µM (inactive) | > 30 µM (inactive) | > 30 µM (inactive) | > 30 µM (inactive) | > 30 µM (inactive)
Cc1c(NC(=O)OC[C@@H]2COCCN2)cn2ncnc(Nc3ccc4c(cnn4Cc4cccc(F)c4)c3)c12 [AC-480] | > 30 µM (inactive) | > 30 µM (inactive) | > 30 µM (inactive) | > 30 µM (inactive) | > 30 µM (inactive) | > 30 µM (inactive)
COc1ccc(-c2ccc3ncc4c(c3c2)n(-c2ccc(N3CCNCC3)c(C(F)(F)F)c2)c(=O)n4C)cn1 [BGT-226 FREE BASE] | > 30 µM (inactive) | > 30 µM (inactive) | > 30 µM (inactive) | > 30 µM (inactive) | > 30 µM (inactive) | > 30 µM (inactive)
Cc1cc(Nc2nc(N[C@@H](C)c3ncc(F)cn3)ncc2Cl)n[nH]1 [AZD-1480] | > 30 µM (inactive) | > 30 µM (inactive) | > 30 µM (inactive) | 0.942 µM | > 30 µM (inactive) | > 30 µM (inactive)
CCc1cc2c(cc1N1CCC(N3CCOCC3)CC1)C(C)(C)c1[nH]c3cc(C#N)ccc3c1C2=O [ALECTINIB] | > 30 µM (inactive) | > 30 µM (inactive) | > 30 µM (inactive) | > 30 µM (inactive) | > 30 µM (inactive) | 35.6 µM (active)
FC(F)(F)c1ccc(CNc2ccc(Cc3c[nH]c4ncc(Cl)cc34)cn2)cn1 [PEXIDARTINIB] | > 30 µM (inactive) | > 30 µM (inactive) | > 30 µM (inactive) | > 30 µM (inactive) | > 30 µM (inactive) | > 30 µM (inactive)
O=S(=O)(c1cccc2c(O)nccc12)N1CCCNCC1 [HYDROXYFASUDIL] | > 30 µM (inactive) | > 30 µM (inactive) | > 30 µM (inactive) | > 30 µM (inactive) | > 30 µM (inactive) | > 30 µM (inactive)

Reference: ChEMBL document CHEMBL3991601, “The target landscape of clinical kinase drugs” (Science, 2017)
